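All cell lines were grown in 96-well plates and treated with compound for 48 hours. TGI: concentration producing complete growth inhibition.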
How the values were obtained:
Assay in all cases: NCI anticancer screen, dose series, 48 h
[1] = tested on: DLD-1 colon
[2] = tested on: HCT-116 colon
[3] = tested on: HOP-92 NSCLC
[4] = tested on: HCT-15 colon
[5] = tested on: SK-MEL-5 melanoma
[6] = tested on: MALME-3M melanoma
[7] = tested on: XF 498 CNS
[8] = tested on: A498 renal
[9] = tested on: HT29 colon
[10] = tested on: SR leukemia
[11] = tested on: NCI-H23 lung
[12] = tested on: DMS 273 small cell lung
[13] = tested on: SF-539 CNS
[14] = tested on: UACC-257 melanoma
[15] = tested on: MOLT-4 leukemia
[16] = tested on: NCI-H522 lung
[17] = tested on: SN12C renal
[18] = tested on: NCI-H226 lung
[19] = tested on: K-562 leukemia
[20] = tested on: HCC-2998 colon
[21] = tested on: SW-620 colon
[22] = tested on: UO-31 renal
[23] = tested on: M14 melanoma
[24] = tested on: KM12 colon
[25] = tested on: IGROV1 ovarian
[26] = tested on: RPMI-8226 leukemia
[27] = tested on: OVCAR-5 ovarian
[28] = tested on: SNB-19 CNS
[29] = tested on: UACC-62 melanoma
[30] = tested on: A549 NSCLC
[31] = tested on: NCI-H460 lung
[32] = tested on: SK-MEL-28 melanoma
[33] = tested on: SNB-75 CNS
[34] = tested on: KM20L2 colon
[35] = tested on: OVCAR-3 ovarian
[36] = tested on: COLO 205 colon
[37] = tested on: SK-OV-3 ovarian
[38] = tested on: TK-10 renal
[39] = tested on: SF-295 CNS
[40] = tested on: RXF-631 renal
[41] = tested on: SF-268 CNS
[42] = tested on: OVCAR-8 ovarian
[43] = tested on: HOP-62 NSCLC
[44] = tested on: M19-MEL melanoma
[45] = tested on: ACHN renal
[46] = tested on: U251 CNS
[47] = tested on: HL-60(TB) leukemia
[48] = tested on: OVCAR-4 ovarian
[49] = tested on: SNB-78 CNS
[50] = tested on: LXFL 529 NSCLC
[51] = tested on: RXF 393 renal
[52] = tested on: LOX IMVI melanoma
[53] = tested on: CAKI-1 renal
[54] = tested on: 786-0 renal
[55] = tested on: DMS 114 small cell lung
[56] = tested on: CCRF-CEM leukemia
[57] = tested on: SK-MEL-2 melanoma
[58] = tested on: EKVX NSCLC
[59] = tested on: HOP-18 NSCLC
[60] = tested on: T-47D breast
[61] = tested on: MDA-MB-231 breast
[62] = tested on: MCF7 breast
[63] = tested on: DU-145 prostate
[64] = tested on: HS 578T breast
[65] = tested on: SN12K1 renal
[66] = tested on: NCI/ADR-RES ovarian
[67] = tested on: PC-3 prostate
[68] = tested on: BT-549 breast
[69] = tested on: MDA-MB-435

With `c1coc(CNc2ncnc3[nH]ncc23)c1` the TGI [1] was > 100 µM, the TGI [2] was > 100 µM and the TGI [3] was > 100 µM. The TGI [4] was > 100 µM, the TGI [5] was > 100 µM and the TGI [6] was > 100 µM. For the same compound, the TGI [7] was > 100 µM, the TGI [8] was > 100 µM and the TGI [9] was > 100 µM. The TGI [10] was > 100 µM, the TGI [11] was > 100 µM and the TGI [12] was > 100 µM. For the same compound, the TGI [13] was > 100 µM, the TGI [14] was > 100 µM and the TGI [15] was > 100 µM. The TGI [16] was > 100 µM, the TGI [17] was > 100 µM and the TGI [18] was > 100 µM. For the same compound, the TGI [19] was > 100 µM, the TGI [20] was > 100 µM and the TGI [21] was > 100 µM. The TGI [22] was > 100 µM, the TGI [23] was > 100 µM and the TGI [24] was > 100 µM. For the same compound, the TGI [25] was > 100 µM, the TGI [26] was > 100 µM and the TGI [27] was > 100 µM. For the same compound, the TGI [28] was > 100 µM, the TGI [29] was > 100 µM and the TGI [30] was > 100 µM. For the same compound, the TGI [31] was > 100 µM, the TGI [32] was > 100 µM and the TGI [33] was > 100 µM. The TGI [34] was > 100 µM, the TGI [35] was > 100 µM and the TGI [36] was > 100 µM. For the same compound, the TGI [37] was > 100 µM, the TGI [38] was > 100 µM and the TGI [39] was > 100 µM. For the same compound, the TGI [40] was > 100 µM, the TGI [41] was > 100 µM and the TGI [42] was > 100 µM. The TGI [43] was > 100 µM, the TGI [44] was > 100 µM and the TGI [45] was > 100 µM. For the same compound, the TGI [46] was > 100 µM, the TGI [47] was > 100 µM and the TGI [48] was > 100 µM. For the same compound, the TGI [49] was > 100 µM, the TGI [50] was > 100 µM and the TGI [51] was > 100 µM. For the same compound, the TGI [52] was > 100 µM, the TGI [53] was > 100 µM and the TGI [54] was > 100 µM. The TGI [55] was > 100 µM, the TGI [56] was > 100 µM and the TGI [57] was > 100 µM. The TGI [58] was > 100 µM.
In the case of `C/C(N=NS(=O)(=O)c1ccccc1)=C1\C=CC=CN1O`, the TGI [1] is reported as > 100 µM, the TGI [2] is reported as > 100 µM and the TGI [3] is reported as > 100 µM. The TGI [4] was > 100 µM, the TGI [5] was > 100 µM and the TGI [7] was > 100 µM. For the same compound, the TGI [8] was > 100 µM, the TGI [9] was > 100 µM and the TGI [10] was > 100 µM. The TGI [11] was > 100 µM, the TGI [12] was > 100 µM and the TGI [13] was > 100 µM. For the same compound, the TGI [14] was > 100 µM, the TGI [15] was > 100 µM and the TGI [16] was > 100 µM. The TGI [17] was > 100 µM, the TGI [59] was > 100 µM and the TGI [20] was > 100 µM. For the same compound, the TGI [21] was > 100 µM, the TGI [22] was > 100 µM and the TGI [23] was > 100 µM. The TGI [24] was > 100 µM, the TGI [25] was > 100 µM and the TGI [26] was > 100 µM. For the same compound, the TGI [27] was > 100 µM, the TGI [28] was > 100 µM and the TGI [29] was > 100 µM. For the same compound, the TGI [30] was > 100 µM, the TGI [31] was > 100 µM and the TGI [32] was > 100 µM. For the same compound, the TGI [33] was > 100 µM, the TGI [34] was > 100 µM and the TGI [35] was > 100 µM. The TGI [37] was > 100 µM, the TGI [38] was > 100 µM and the TGI [39] was > 100 µM. The TGI [40] was > 100 µM, the TGI [41] was > 100 µM and the TGI [42] was > 100 µM. The TGI [43] was > 100 µM, the TGI [44] was > 100 µM and the TGI [45] was > 100 µM. The TGI [46] was > 100 µM, the TGI [47] was > 100 µM and the TGI [48] was > 100 µM. The TGI [49] was > 100 µM, the TGI [50] was > 100 µM and the TGI [53] was > 100 µM. The TGI [54] was > 100 µM, the TGI [55] was > 100 µM and the TGI [56] was > 100 µM. For the same compound, the TGI [58] was > 100 µM.
`C/C(=N\NC(=S)N1CC2CCC(CC2)C1)c1nccs1` gave a TGI [1] of 17.3 µM, a TGI [60] of 14.6 µM and a TGI [2] of 13.4 µM. The TGI [61] was 19.9 µM, the TGI [3] was 7.21 µM and the TGI [4] was 20.4 µM. The TGI [5] was 5.24 µM, the TGI [6] was 13.9 µM and the TGI [7] was 13.8 µM. The TGI [8] was 14.3 µM, the TGI [9] was 15.9 µM and the TGI [10] was 6.91 µM. For the same compound, the TGI [11] was 13 µM, the TGI [12] was 4.93 µM and the TGI [13] was 3.57 µM. It also gave a TGI [14] of 6.06 µM, a TGI [15] of 20.7 µM and a TGI [16] of 14 µM. For the same compound, the TGI [17] was 12.5 µM, the TGI [18] was 4.7 µM and the TGI [59] was 7.95 µM. For the same compound, the TGI [62] was 14 µM, the TGI [19] was 9.9 µM and the TGI [20] was 15.9 µM. It also gave a TGI [21] of 18.9 µM, a TGI [22] of 1.52 µM and a TGI [23] of 1.6 µM. For the same compound, the TGI [24] was 17.6 µM, the TGI [63] was 12.5 µM and the TGI [25] was 15 µM. It also gave a TGI [26] of 20.8 µM, a TGI [27] of 15.8 µM and a TGI [28] of 15.1 µM. For the same compound, the TGI [29] was 0.893 µM, the TGI [30] was 8.87 µM and the TGI [31] was 3.67 µM. It also gave a TGI [32] of 19.3 µM, a TGI [64] of 38.6 µM and a TGI [33] of 16.2 µM. For the same compound, the TGI [34] was 1.35 µM, the TGI [35] was 19.8 µM and the TGI [36] was 16 µM. It also gave a TGI [37] of 11.3 µM, a TGI [38] of 15.9 µM and a TGI [65] of 15.2 µM. For the same compound, the TGI [39] was 7.81 µM, the TGI [40] was 17.6 µM and the TGI [41] was 9.41 µM. For the same compound, the TGI [66] was 3.9 µM, the TGI [42] was 13.1 µM and the TGI [43] was 5.66 µM. It also gave a TGI [44] of 1.8 µM, a TGI [45] of 8.99 µM and a TGI [46] of 6.43 µM. The TGI [47] was 0.0184 µM, the TGI [48] was 17.6 µM and the TGI [67] was 16.6 µM. It also gave a TGI [49] of 41.8 µM, a TGI [68] of 20 µM and a TGI [50] of 15.8 µM. The TGI [69] was 12.7 µM, the TGI [51] was 5.39 µM and the TGI [52] was 9.09 µM. The TGI [53] was 14.7 µM, the TGI [54] was 7.55 µM and the TGI [55] was 0.218 µM. For the same compound, the TGI [56] was 0.445 µM, the TGI [57] was 15.7 µM and the TGI [58] was 11.9 µM.

— PubChem BioAssay (NCI)
